Values of other authors, collected in patent US7157490B2, “Phenylalanine derivatives as dipeptidyl peptidase inhibitors for the treatment or prevention of diabetes” (Merck & Co., Inc., priority 2002, dated 2007).

Legend:
[1] = system: mouse model of cyclophosphamide-induced neutropenia
rats = conditions: doubled from day 7
DP-IV = biological target: T1, DP-IV (Homo sapiens, UniProt P27487)
T1 construct: GRF is rapidly degraded in plasma to GRF[3–44]; from tissue
T1 sequence (P27487 39-766 limits assumed): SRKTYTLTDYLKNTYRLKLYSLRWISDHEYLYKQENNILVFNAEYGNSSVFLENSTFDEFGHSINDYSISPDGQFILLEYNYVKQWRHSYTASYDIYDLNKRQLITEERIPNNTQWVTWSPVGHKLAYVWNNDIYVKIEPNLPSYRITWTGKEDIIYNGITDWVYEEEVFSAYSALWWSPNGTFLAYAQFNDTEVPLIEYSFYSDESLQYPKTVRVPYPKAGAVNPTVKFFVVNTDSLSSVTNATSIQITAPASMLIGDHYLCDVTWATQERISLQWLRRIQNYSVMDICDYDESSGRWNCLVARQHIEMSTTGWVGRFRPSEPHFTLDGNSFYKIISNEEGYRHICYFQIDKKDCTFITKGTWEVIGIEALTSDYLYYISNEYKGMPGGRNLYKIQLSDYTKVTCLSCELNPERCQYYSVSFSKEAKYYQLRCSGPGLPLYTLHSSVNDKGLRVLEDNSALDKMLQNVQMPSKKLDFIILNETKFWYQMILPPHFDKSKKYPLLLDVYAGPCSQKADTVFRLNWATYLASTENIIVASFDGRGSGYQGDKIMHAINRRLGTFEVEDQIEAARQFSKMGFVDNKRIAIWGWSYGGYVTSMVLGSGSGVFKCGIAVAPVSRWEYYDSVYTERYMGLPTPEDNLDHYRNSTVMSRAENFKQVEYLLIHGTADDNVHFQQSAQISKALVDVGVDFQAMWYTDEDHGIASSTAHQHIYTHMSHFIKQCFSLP

Question: With CC(C)[C@H](N)C(=O)N1CCC[C@H]1B(O)O [Val-Boro-Pro] as the compound, how does the hematopoiesis [1] read?
Answer: stimulated hematopoiesis

Question: For CC(C)N1CCC(c2ccccc2)(c2ccccc2)CC1 [Prodipine, Pro-Pro-diphenyl-phosphonate], which cardiac allograft survival (rats) is on record?
Answer: 14 day

Question: For diprotin A, which “degradation of GRF in plasma to GRF[3–44]” value (DP-IV) is on record?
Answer: prevented
